The values that follow come from patent publication US12685490B2 (The Board of Trustees of the Leland Stanford Junior …, priority 2020, dated 2026).

Data set [1] deals with T1, IAPP (Homo sapiens, UniProt P10997).
T1 construct: made in house; host or cells: chemical synthesis (Fmoc solid-phase, Rink resin)
T1 sequence (P10997 34-70 limits assumed): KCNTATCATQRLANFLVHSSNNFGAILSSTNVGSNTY
Put plainly: Thioflavin T (ThT) binding assay of IAPP fibrillogenesis. In kind it is biochemical. Particulars: for effect on IAPP amyloid self-assembly (fibrillogenesis): IAPP/peptide 1/1. The method, then:
Of note, an incubation of LL-37 alone was also included. At the indicated time points aliquots were mixed with the ThT solution consisting of 20 μM ThT in 0.05 M glycine/NaOH (pH 8.5) and binding was determined by measuring fluorescence emission at 486 nm upon excitation at 450 nm using a Multilabel reader VictorX3 (Perkin Elmer Life Sciences). […] An aliquot of a solution consisting mostly of IAPP fibrils (fIAPP) based on ThT binding and TEM (FIGS. 18-19) (7 days aged IAPP (16.5 μM) made as above) was added to the incubations resulting in a final seed (fIAPP) concentration of 1.65 μM. Incubations of (unseeded) IAPP alone (16.5 μM) and of 10% fIAPP alone were included as controls. ThT binding was determined at the indicated time points as above. […] Solutions containing (unseeded) IAPP alone (16.5 μM), IAPP seeded with fIAPP (10%), and IAPP seeded with LL-37-treated fIAPP (10%) were made in ThT assay buffer and kinetics of fibrillogenesis were determined by the ThT binding assay as described above.

Data set [2] has as its system IAPP cytotoxicity in RIN5fm cells. Description: MTT reduction assay: formation of β-cell damaging IAPP assemblies. In kind it is cell-based, rat. On the procedure:
(§1) Briefly, RIN5fm cells were cultured and plated in 96-well plates as described. Solutions of IAPP alone and its mixtures with peptides were aged in ThT assay buffer as described under “ThT binding assays”. At the indicated incubation time points (24 h or 7 days) aliquots were diluted with cell culture medium and added to the cells. Following incubation with the cells for ~20 h (37° C., humified atmosphere containing 5% CO2), cell damage was verified by the MTT reduction assay.
On the technique in general: Formazan colour is commonly taken as a measure of viable cells.

The target of the next data set is T2, Fluos-IAPP (Homo sapiens, UniProt P10997).
T2 construct: made in house; host or cells: chemical synthesis
T2 sequence (P10997 34-70 limits assumed): T1 sequence (P10997 34-70 limits assumed)
Put plainly: Fluorescence spectroscopic titrations. In kind it is binding. As to conditions: for Kd: pH 7.4, mean (SD) of 3 binding curves, read-out: app. Kd. On the procedure: Fluorescence spectroscopic titration studies were performed with a JASCO FP-6500 fluorescence spectrophotometer using a previously described experimental protocol. Briefly, excitation was at 492 nm and emission spectra were recorded between 500 and 600 nm. […] For all experiments, freshly made stocks of peptides and their fluorescently labeled analogs in HFIP were used. Measurements were performed in 10 mM sodium phosphate buffer (pH 7.4) containing 1% HFIP within 2-5 min following solution preparation at room temperature. Of note, under these conditions freshly made Fluos-IAPP (5 nM) solutions consist mostly of monomers. App. Kds were calculated using 1/1 binding models as previously described and are means (±SD) of three binding curves.

The next data set concerns RIN5fm cells. In kind it is cell-based, rat. On the procedure:
as §1

For data set [3], the target named is T1, IAPP. Put plainly: Far-UV CD spectroscopy of IAPP conformation and misfolding. As to conditions: 1/1, 5 μM each, pH 7.4. The method, then:
Far-UV CD studies were performed using a Jasco 715 spectropolarimeter. Spectra were recorded at room temperature between 195 and 250 nm, at 0.1 nm intervals, and with a response time of 1 second. Each spectrum is an average of 3 spectra. All CD studies were performed in aqueous 10 mM sodium phosphate buffer (pH 7.4) containing 1% HFIP (CD assay buffer) at room temperature; this assay system has been earlier developed and found to be suitable for following kinetics of IAPP (5 μM) misfolding into β-sheets and amyloid fibrils alone or in the presence of inhibitors. Briefly, peptide stocks in HFIP were freshly made (4° C.), diluted with assay buffer (room temperature) at the indicated concentrations within the cuvette, and following gentle mixing spectra were measured immediately or at the indicated incubation time points. […] The CD spectrum of IAPP at the incubation time point of 24 h (endpoint) was measured after gentle mixing to re-dissolve precipitated aggregates. The CD spectrum of the buffer was always subtracted from the CD spectra of the peptide solutions.

The target of data set [4] is T1, IAPP. Put plainly: Cross-linking, NuPAGE and Western blot. Particulars: IAPP 30 μM, 1/1, pH 7.4. On the procedure: Cross-linking studies were preformed using a previously developed assay system. […] Solutions were cross-linked using 25% aqueous glutaraldehyde (Sigma-Aldrich) and 10% aqueous trichloroacetic acid (TCA) was used to precipitate cross-linked peptides. Pellets were dissolved in reducing NuPAGE sample buffer, boiled for 5 min, and subjected to NuPAGE electrophoresis in 4-12% Bis-Tris gels with MES running buffer (Invitrogen). The same volume of each solution (same IAPP amount) was loaded in all lanes. Peptides were blotted using a XCell II Blot Module blotting system (Invitrogen).

The subject of data set [5] is autoimmune diabetes in NOD mice. As to conditions: prediabetic NOD mice; cited from earlier work.
In data set [6] the target is T3, IAPP monomers and fibrils (Homo sapiens, UniProt P10997).
T3 construct: made in house; host or cells: chemical synthesis (Fmoc solid-phase, Rink resin)
T3 sequence (P10997 34-70 limits assumed): T1 sequence (P10997 34-70 limits assumed)
Put plainly: Dot blot analysis. In kind it is binding. Particulars: FAM-LL-37 200 nM, IAPP 40 μg spotted. On the procedure:
IAPP monomers or IAPP fibrils (fIAPP) containing solutions (different amounts up to 40 μg) were spotted onto a nitrocellulose membrane. These solutions were prepared by incubating an IAPP solution (1 mg/ml) in ThT assay buffer for 0 h (“monomers”) or 24 h (“fibrils”); the presence of fibrils was confirmed by ThT binding and TEM (not shown). The membrane was washed with TBSn (20 mM Tris/HCl, 150 mM NaCl and 0.05% Tween-20), blocked with 5% milk in TBSn overnight at 10° C., and washed again with TBSn. […] Following washings with incubation buffer and TBSn, bound FAM-LL-37 was visualized with a LAS-4000mini instrument (Fujifilm). Of note, glucagon fibrils were spotted as well to control for the specificity of the observed strong binding of FAM-LL-37 to fIAPP (not shown). Glucagon fibrils were made by incubating glucagon in 10 mM HCl (2 μg/μl) (10 days) followed by neutralization with 10 mM NaOH; ThT binding and TEM confirmed fibril formation (not shown). The ThT buffer alone was also spotted to control for NSB. In addition, to control for the interference of fibril autofluorescence, a membrane containing spotted fIAPP which had been incubated in buffer alone w/o FAM-LL-37 was included in each assay; in general, fIAPP autofluorescence contributed up to 25% of the total amount of fluorescence observed in fIAPP bound to FAM-LL-37.

Setting [7] is: aged IAPP/peptide mixtures 1/1, RIN5fm cells.

Where two headings read alike, the source gives them in different places. Residues, ends and D or L forms follow the SMILES beside them.

For the compound `CC[C@H](C)[C@H](NC(=O)[C@H](CCCCN)NC(=O)[C@H](CCC(=O)O)NC(=O)[C@H](CCCCN)NC(=O)[C@H](CO)NC(=O)[C@H](CCCCN)NC(=O)[C@H](CCCNC(=N)N)NC(=O)[C@H](Cc1ccccc1)NC(=O)[C@H](Cc1ccccc1)NC(=O)[C@H](CC(=O)O)NC(=O)CNC(=O)[C@H](CC(C)C)NC(=O)[C@@H](N)CC(C)C)C(=O)NCC(=O)O` [LL-37(1-14)] (H-LLGDFFRKSKEKIG-OH; N-terminus assumed), the “effect on IAPP amyloid self-assembly (fibrillogenesis)” value (from here on “effect … (fibrillogenesis)”) on IAPP [1] (IAPP 16.5 μM) is reported as “unable to interfere”. Moreover, the “effect on formation of cytotoxic IAPP assemblies (cell-damaging effects)” value (shortened to “effect on formation”) in data set [2] (setting [7]) is “unable to interfere”. The Kd on Fluos-IAPP (Fluos-IAPP 5 nM) worked out at 2540 nM. Moreover, the “weaker binding to Fluos-IAPP” value on Fluos-IAPP (app. Kd comparison) is ~ 30 fold.

As for `CC[C@H](C)[C@H](NC(=O)[C@H](CCCNC(=N)N)NC(=O)[C@H](CCC(N)=O)NC(=O)[C@@H](NC(=O)[C@@H](NC(=O)[C@H](CCCNC(=N)N)NC(=O)[C@H](CCCCN)NC(=O)[C@H](Cc1ccccc1)NC(=O)[C@H](CCC(=O)O)NC(=O)[C@@H](N)CCCCN)[C@@H](C)CC)C(C)C)C(=O)N[C@@H](CCCCN)C(=O)N[C@@H](CC(=O)O)C(=O)N[C@@H](Cc1ccccc1)C(=O)N[C@@H](CC(C)C)C(=O)N[C@@H](CCCNC(=N)N)C(=O)N[C@@H](CC(N)=O)C(=O)N[C@@H](CC(C)C)C(=O)N[C@H](C(=O)N1CCC[C@H]1C(=O)N[C@@H](CCCNC(=N)N)C(=O)N[C@H](C(=O)N[C@@H](CCC(=O)O)C(=O)N[C@@H](CO)C(=O)O)[C@@H](C)O)C(C)C` [LL-37(15-37)] (H-KEFKRIVQRIKDFLRNLVPRTES-OH; N-terminus assumed), the “effect … (fibrillogenesis)” value at IAPP [1] (IAPP 16.5 μM) is reported as “unable to interfere”. The “effect on formation” value in data set [2] (setting [7]) is “unable to interfere”. Further, the Kd at Fluos-IAPP (Fluos-IAPP 5 nM) is 31.9 nM.

For `CC[C@H](C)[C@H](NC(=O)[C@H](CCCCN)NC(=O)[C@H](CCC(=O)O)NC(=O)[C@H](CCCCN)NC(=O)[C@H](CO)NC(=O)[C@H](CCCCN)NC(=O)[C@H](CCCNC(=N)N)NC(=O)[C@H](Cc1ccccc1)NC(=O)[C@H](Cc1ccccc1)NC(=O)[C@H](CC(=O)O)NC(=O)CNC(=O)[C@H](CC(C)C)NC(=O)[C@@H](N)CC(C)C)C(=O)NCC(=O)N[C@@H](CCCCN)C(=O)N[C@@H](CCC(=O)O)C(=O)N[C@@H](Cc1ccccc1)C(=O)N[C@@H](CCCCN)C(=O)N[C@@H](CCCNC(=N)N)C(=O)N[C@H](C(=O)N[C@H](C(=O)N[C@@H](CCC(N)=O)C(=O)N[C@@H](CCCNC(=N)N)C(=O)N[C@H](C(=O)N[C@@H](CCCCN)C(=O)N[C@@H](CC(=O)O)C(=O)N[C@@H](Cc1ccccc1)C(=O)N[C@@H](CC(C)C)C(=O)N[C@@H](CCCNC(=N)N)C(=O)N[C@@H](CC(N)=O)C(=O)N[C@@H](CC(C)C)C(=O)N[C@H](C(=O)N1CCC[C@H]1C(=O)N[C@@H](CCCNC(=N)N)C(=O)N[C@H](C(=O)N[C@@H](CCC(=O)O)C(=O)N[C@@H](CO)C(=O)O)[C@@H](C)O)C(C)C)[C@@H](C)CC)C(C)C)[C@@H](C)CC` [LL-37], the “effect … (fibrillogenesis)” value on IAPP [1] (IAPP 16.5 μM) was “effectively suppressed IAPP amyloid self-assembly”. The “effect on seeding of IAPP fibrillogenesis by fIAPP (10%)” value at IAPP [1] (IAPP 16.5 μM, LL-37 1/1, 10% fIAPP seeds) was “fully suppressed”. On IAPP [1] (fIAPP incubated with LL-37 (10-fold) for 24 h, used as 10% seeds), the “seeding ability of fIAPP after treatment with peptide” value was “converts them into seeding incompetent assemblies”. Further, the “effect on formation” value in data set [2] is given as “effectively suppressed formation of cytotoxic IAPP assemblies”. For the same compound, 17 nM corresponded to half-maximal inhibition in data set [2] (rat) (IC50). Besides, the “cytotoxicity of peptide alone” value in the data set with RIN5fm cells was “not cytotoxic”. The “increase of Fluos-IAPP fluorescence emission” value at Fluos-IAPP (Fluos-IAPP 5 nM, 100-fold molar excess of LL-37) amounted to 322%. For the same compound, the Kd at Fluos-IAPP (Fluos-IAPP 5 nM) was 88.1 nM. The “effect on IAPP conformation / misfolding” value on IAPP [3] is “strong time-dependent increase of random coil contents and no precipitation occurred”. For the same compound, the “hetero-assemblies with IAPP by cross-linking” value at IAPP [4] is on record as “formation of IAPP-LL-37 hetero-tetramers”.

As to `CC[C@H](C)[C@H](NC(=O)[C@H](CCCCN)NC(=O)[C@H](CO)NC(=O)[C@H](Cc1ccccc1)NC(=O)[C@H](CCC(=O)O)NC(=O)[C@H](Cc1ccccc1)NC(=O)[C@H](CCCNC(=N)N)NC(=O)[C@H](CC(C)C)NC(=O)[C@H](CCCCN)NC(=O)[C@H](CC(C)C)NC(=O)CN)C(=O)N[C@@H](CCCCN)C(=O)NCC(=O)N[C@@H](CCC(=O)O)C(=O)N[C@@H](Cc1ccccc1)C(=O)N[C@@H](CC(C)C)C(=O)N[C@@H](CCCCN)C(=O)N[C@H](C(=O)N1CCC[C@H]1C(=O)N[C@@H](CCC(=O)O)C(=O)N[C@H](C(=O)N[C@@H](CCCNC(=N)N)C(=O)N[C@@H](Cc1ccccc1)C(=O)N[C@@H](CCCNC(=N)N)C(=O)N[C@@H](CC(=O)O)C(=O)N[C@H](C(=O)N[C@@H](CCCCN)C(=O)N[C@@H](CC(C)C)C(=O)N[C@@H](CCCCN)C(=O)N[C@@H](CC(=O)O)C(=O)N[C@@H](CC(N)=O)C(=O)N[C@@H](CCCNC(=N)N)C(=O)N[C@H](C(=O)N[C@@H](CO)C(=O)N[C@H](C(=O)N[C@@H](CCC(N)=O)C(=O)N[C@@H](CCCNC(=N)N)C(=O)O)C(C)C)[C@@H](C)CC)[C@@H](C)CC)C(C)C)[C@@H](C)O` [scrLL-37, reference compound] (H-GLKLRFEFSKIKGEFLKTPEVRFRDIKLKDNRISVQR-OH), the “effect on IAPP cytotoxicity” value in data set [2] (up to 10-fold molar excess of peptide, 7 days aged, RIN5fm cells) is “unable to inhibit”.

Take CRAMP: the “effect on autoimmune diabetes” value in data set [5] is recorded as “dampening the incidence of autoimmune diabetes”.

Turning to “FAM-LL-37: N-amino-terminal fluorescein labeled LL-37 with a 6-aminohexanoic acid spacer between FAM and the N-terminus”, in data set [6], the “binding to IAPP monomers and fibrils” value is “bound both IAPP fibrils and monomers”.

What is called IC50 is the concentration needed to halve the response being measured. A low value points to greater potency.
